Results: patent publication US20250051363A1, “Substituted Pyrazolopyridines” (Neuro3 Therapeutics, Inc., priority 2023, published 2025)

Biological target: LRRK2 wild-type (Homo sapiens (Human), UniProt Q5S007)
Experiment: LanthaScreen LRRK2 Biochemical Activity Assay
Settings: human recombinant LRRK2 (amino acids 970-2527) wild-type, ATP 57 μM, TR-FRET; read-out: IC50 (nM), inhibition of LRRK2 wild-type kinase activity
Procedure: The ability of a compound of Formula (I) to inhibit LRRK2 kinase activity is measured using a LanthaScreen™ kinase activity assay. In general, in a LanthaScreen™ kinase activity assay, kinase, fluorescein-labeled substrate, and ATP are allowed to react. Then EDTA (to stop the reaction) and terbium-labeled antibody (to detect phosphorylated product) are added. In a LanthaScreen™ kinase reaction, the antibody associates with the phosphorylated fluorescein labeled substrate resulting in an increased TR-FRET value. The TR-FRET value is a dimensionless number that is calculated as the ratio of the acceptor (fluorescein) signal to the donor (terbium) signal. The amount of antibody that is bound to the tracer is directly proportional to the amount of phosphorylated substrate present, and in this manner, kinase activity can be detected and measured by an increase in the TR-FRET value. Accordingly, in this Example, enzyme reactions are carried out in a kinase reaction buffer in the presence or absence of representative compounds of Formula (I) at various concentrations in 384-well plate at room temperature for 60 minutes. The kinase reaction buffer contains human recombinant LRRK2 protein (amino acids 970-2527, 5 nM), ATP (57 μM for LRRK2 wild-type, 134 μM for G2019S mutant protein), Fluorescein-LRRKtide substrate (0.4 mM), 50 mM Tris pH 7.5, 10 mM MgCl2, 1 mM EGTA, 0.01% Brij™-35, and 2 mM DTT. The final reaction volume for each reaction is 10 μL. The reactions are initated by adding the substrate and stopped by the addition of 10 μL of a TR-FRET dilution buffer supplemented with a kinase quench buffer (10 mM EDTA final) and Tb-anti-pLRRKtide (2 nM final). The plate is further incubated at room temperature for another 60 minutes, and the fluorescent signals are read on an EnVision® multilabel plate reader (PerkinElmer, Waltham, MA) with excitation at 340 nm and emission at 495 and 520 nm. The assay signal is determined as a ratio of FRET-specific signal measured with emission filter at 520 nm to that of the signal measured with Tb-specific emission filter at 495 nm. IC50 values for compound-mediated enzyme inhibition are calculated using appropriate programs in GraphPad Prism software by plotting the logarithm of the compound concentrations versus percent inhibition. All reagents are purchased from Thermo Fisher Scientific.

Sequence of LRRK2 wild-type (Q5S007 970-2527): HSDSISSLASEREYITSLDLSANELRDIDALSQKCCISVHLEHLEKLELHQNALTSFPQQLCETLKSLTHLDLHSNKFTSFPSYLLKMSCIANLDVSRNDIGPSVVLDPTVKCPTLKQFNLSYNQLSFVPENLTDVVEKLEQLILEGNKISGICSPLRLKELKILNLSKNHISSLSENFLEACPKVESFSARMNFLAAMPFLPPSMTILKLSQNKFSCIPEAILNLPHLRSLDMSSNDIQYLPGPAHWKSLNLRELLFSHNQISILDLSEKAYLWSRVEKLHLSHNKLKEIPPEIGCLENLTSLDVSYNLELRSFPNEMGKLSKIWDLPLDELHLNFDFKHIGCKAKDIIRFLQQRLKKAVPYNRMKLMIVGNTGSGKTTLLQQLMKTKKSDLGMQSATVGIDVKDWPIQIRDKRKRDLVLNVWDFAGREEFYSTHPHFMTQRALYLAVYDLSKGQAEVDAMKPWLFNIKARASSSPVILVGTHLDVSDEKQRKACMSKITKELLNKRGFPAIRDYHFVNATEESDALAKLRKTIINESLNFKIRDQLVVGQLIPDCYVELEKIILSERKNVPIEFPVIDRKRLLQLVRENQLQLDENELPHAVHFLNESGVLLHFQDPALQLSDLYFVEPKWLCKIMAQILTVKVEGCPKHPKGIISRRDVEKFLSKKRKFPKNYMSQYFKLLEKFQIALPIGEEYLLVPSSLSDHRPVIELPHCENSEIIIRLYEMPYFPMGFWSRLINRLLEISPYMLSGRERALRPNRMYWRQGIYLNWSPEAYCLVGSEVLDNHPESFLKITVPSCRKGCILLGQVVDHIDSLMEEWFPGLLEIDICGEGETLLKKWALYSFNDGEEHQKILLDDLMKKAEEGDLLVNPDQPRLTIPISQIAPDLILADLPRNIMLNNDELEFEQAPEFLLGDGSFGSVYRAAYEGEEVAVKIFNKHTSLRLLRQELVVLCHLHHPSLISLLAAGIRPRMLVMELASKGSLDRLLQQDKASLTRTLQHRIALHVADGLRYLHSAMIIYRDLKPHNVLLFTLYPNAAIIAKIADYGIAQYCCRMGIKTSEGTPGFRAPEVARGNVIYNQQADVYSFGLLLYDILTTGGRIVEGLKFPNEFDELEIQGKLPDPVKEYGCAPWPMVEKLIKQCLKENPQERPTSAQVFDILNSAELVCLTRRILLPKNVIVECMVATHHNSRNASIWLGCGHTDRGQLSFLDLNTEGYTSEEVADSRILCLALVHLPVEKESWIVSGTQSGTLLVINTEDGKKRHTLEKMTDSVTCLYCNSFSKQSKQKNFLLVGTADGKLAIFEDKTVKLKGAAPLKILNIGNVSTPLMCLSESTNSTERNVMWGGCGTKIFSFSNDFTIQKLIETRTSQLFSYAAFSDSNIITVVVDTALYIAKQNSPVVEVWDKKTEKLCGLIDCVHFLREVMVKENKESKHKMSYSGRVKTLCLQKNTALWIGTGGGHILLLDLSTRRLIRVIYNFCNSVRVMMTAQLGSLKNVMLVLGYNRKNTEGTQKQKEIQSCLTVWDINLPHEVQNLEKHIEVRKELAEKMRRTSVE

Row | Compound | IC50
1 | N#CCCCC(=O)Nc1ccn2ncc(-c3cccc(C4CCCNC4)n3)c2c1 (centres unmarked) [Example 75, 4-cyano-N-(3-(6-(piperidin-3-yl)pyridin-2-yl)pyrazolo[1,5-a]pyridin-5-yl)butanamide] | 11 to 100 nM
2 | O=C(COc1ccncc1)Nc1ccn2ncc(-c3cccc(C4CCCNC4)n3)c2c1 (centres unmarked) [Example 76, N-(3-(6-(piperidin-3-yl)pyridin-2-yl)pyrazolo[1,5-a]pyridin-5-yl)-2-(pyridin-4-yloxy)acetamide] | 11 to 100 nM
3 | N#CCC(=O)Nc1ccn2ncc(-c3cccc(C4CCCNC4)n3)c2c1 (centres unmarked) [Example 77, 2-cyano-N-(3-(6-(piperidin-3-yl)pyridin-2-yl)pyrazolo[1,5-a]pyridin-5-yl)acetamide] | 11 to 100 nM
4 | O=C(Cc1cccnc1)Nc1ccn2ncc(-c3cccc(C4CCCNC4)n3)c2c1 (centres unmarked) [Example 78, N-(3-(6-(piperidin-3-yl)pyridin-2-yl)pyrazolo[1,5-a]pyridin-5-yl)-2-(pyridin-3-yl)acetamide] | 11 to 100 nM
5 | O=C(CNc1ccncc1)Nc1ccn2ncc(-c3cccc(C4CCCNC4)n3)c2c1 (centres unmarked) [Example 79, N-(3-(6-(piperidin-3-yl)pyridin-2-yl)pyrazolo[1,5-a]pyridin-5-yl)-2-(pyridin-4-ylamino)acetamide] | 11 to 100 nM
6 | O=C(CNc1cccnc1)Nc1ccn2ncc(-c3cccc(C4CCCNC4)n3)c2c1 (centres unmarked) [Example 80, N-(3-(6-(piperidin-3-yl)pyridin-2-yl)pyrazolo[1,5-a]pyridin-5-yl)-2-(pyridin-3-ylamino)acetamide] | 11 to 100 nM
7 | O=C(Cc1ccccn1)Nc1ccn2ncc(-c3cccc(C4CCCNC4)n3)c2c1 (centres unmarked) [Example 81, N-(3-(6-(piperidin-3-yl)pyridin-2-yl)pyrazolo[1,5-a]pyridin-5-yl)-2-(pyridin-2-yl)acetamide] | 11 to 100 nM

More lines, now with the values ahead:

Row | IC50 | Compound
8 | 11 to 100 nM | C[C@@H]1CN(c2cccc(-c3cnn4ccc(Cl)cc34)n2)C[C@H](C)N1C [Example 71, 5-chloro-3-(6-((3S,5R)-3,4,5-trimethylpiperazin-1-yl)pyridin-2-yl)pyrazolo[1,5-a]pyridine]
9 | 11 to 100 nM | O=C(Nc1ccn2ncc(-c3cccc(C4CCCNC4)n3)c2c1)c1ccccn1 (centres unmarked) [Example 72, N-(3-(6-(piperidin-3-yl)pyridin-2-yl)pyrazolo[1,5-a]pyridin-5-yl)picolinamide]
10 | 11 to 100 nM | O=C(COc1ccccn1)Nc1ccn2ncc(-c3cccc(C4CCCNC4)n3)c2c1 (centres unmarked) [Example 73, N-(3-(6-(piperidin-3-yl)pyridin-2-yl)pyrazolo[1,5-a]pyridin-5-yl)-2-(pyridin-2-yloxy)acetamide]
11 | 11 to 100 nM | N#CCCC(=O)Nc1ccn2ncc(-c3cccc(C4CCCNC4)n3)c2c1 (centres unmarked) [Example 74, 3-cyano-N-(3-(6-(piperidin-3-yl)pyridin-2-yl)pyrazolo[1,5-a]pyridin-5-yl)propanamide]
